Experimental data published in publication PMC3811480, “The R Enantiomer of the Antitubercular Drug PA-824 as a Potential Oral Treatment for Visceral Leishmaniasis” (Antimicrobial Agents and Chemotherapy, 2013).
Several values for one entry are separate records, joined by “and”; a condition that tells them apart may be missing. Equal values may be shown once. Entries after “also recorded” stand apart in the source; their conditions may differ. Read-outs that look alike come from different tables or passages of the source.

Tests used:
[1] = tested on: Mycobacterium tuberculosis; set-up: method as in PMID 22023140; conditions: cited from earlier work
[2] = tested on: L. donovani intracellular amastigotes in mouse peritoneal macrophages; assay: In-macrophage drug sensitivity assay; assay type: cell-based, Leishmania donovani; conditions: for EC50: L. donovani amastigote (in macrophage); for activity against L. donovani intracellular amastigotes: highest concentration tested 50 μM
[3] = Exposure in mice after acute oral dosing (blood levels, UPLC-MS/MS); assay type: in vivo, BALB/c mice; conditions: for half-life: read-out: elimination half-life (t1/2) (converted); for Tmax: read-out: time of maximum concentration in blood
Procedure: The R and S enantiomers of PA-824 (50 mg kg^−1) were orally administered to BALB/c mice. Blood samples (10 μl) were collected from the tail vein of each animal into sample storage tubes (Micronic BV) containing deionized water (20 μl) at defined intervals postdose and stored at −80°C until analysis. The level of each enantiomer in mouse blood was determined by UPLC-MS/MS ([20]).

[4] = tested on: Leishmania donovani LdBOB promastigotes; assay: In vitro drug sensitivity assay, L. donovani promastigotes (72 h, resazurin); assay type: cell-based; conditions: for EC50: Leishmania donovani; for activity against L. donovani promastigotes: highest concentration tested 50 μM
[5] = physchem
[6] = tested on: L. donovani amastigotes (LV9); assay: In vivo drug sensitivity, mouse model of visceral leishmaniasis (liver parasite burden); set-up: species or system Leishmania donovani; conditions: for suppression of infection (liver parasite burden) compared to untreated controls / suppression of infection (liver parasite burden): BALB/c mice; for suppression of infection (liver parasite burden) compared to untreated controls: 30 mg kg^−1 orally twice daily for 5 days
[7] = in vitro; conditions: mouse, plasma
[8] = tested on: T. brucei bloodstream forms (S427 Single Marker); assay: In vitro drug sensitivity assay, bloodstream-form T. brucei; assay type: cell-based; conditions: Trypanosoma brucei
[9] = tested on: LdBOB promastigotes; assay: PA-824-mediated cell killing (time to kill, wash-out viability); assay type: cell-based, Leishmania donovani; conditions: 10 times EC50, promastigotes
[10] = tested on: Trypanosoma cruzi Silvio-X10/7 clone A1 epimastigotes; assay: In vitro drug sensitivity assay, T. cruzi epimastigotes (72 h, resazurin); assay type: cell-based; conditions: T. cruzi epimastigote
[11] = tested on: T. cruzi amastigotes in Vero cells; assay: In-Vero-cell T. cruzi drug sensitivity assay (72 h, high-content imaging); assay type: cell-based; conditions: Trypanosoma cruzi; T. cruzi amastigote (in Vero cell)
[12] = Tolerability in mice during the efficacy study; assay type: in vivo, BALB/c mice; conditions: 30 or 100 mg kg^−1 orally twice daily for 5 days
Procedure: All animal experiments were approved by the University Ethical Review Committee and performed under the Animals (Scientific Procedures) Act 1986 in accordance with the European Communities Council Directive (86/609/EEC). Groups of female BALB/c mice (5 per group) were inoculated intravenously with approximately 2 × 10^7 L. donovani amastigotes (LV9; WHO designation MHOM/ET/67/HU3) harvested from the spleen of an infected hamster ([24]). […] Drug dosing solutions were prepared fresh each day, and the vehicle for both enantiomers of PA-824 was 10% (vol/vol) dimethyl sulfoxide (DMSO), 40% polyethylene glycol 400, and 50% deionized water. On day 14 postinfection, all animals were humanely euthanized and parasite burdens were determined by counting the number of amastigotes/500 liver cells ([11]). Parasite burden is expressed in Leishmania donovani units (LDU), mean number of amastigotes per liver cell × mg weight of liver ([25]).

[13] = tested on: Trypanosoma brucei brucei S427 29-13 procyclic trypomastigotes; assay: In vitro drug sensitivity assay, T. brucei procyclics (72 h, resazurin); assay type: cell-based
[14] = tested on: Transgenic LdBOB promastigotes expressing the Leishmania major nitroreductase (LmjF.05.0660); assay: microbe, parasite or virus in culture; assay type: cell-based, Leishmania donovani; conditions: for EC50: Leishmania major, read-out: EC50 against NTR-overexpressing promastigotes
[15] = tested on: HepG2 cells; assay: HepG2 counterscreen (resazurin); assay type: cell-based; conditions: Homo sapiens; Mammalian (HepG2); n = 2
[16] = tested on: promastigotes of the LdBOB strain of L. donovani; assay: Drug combination studies (fixed-ratio isobologram, 72 h); assay type: cell-based, Leishmania donovani; conditions: for EC50: Leishmania donovani, compound alone, duplicate cultures, read-out: Absolute EC50
Procedure: The EC50s of each combination were determined after 72 h and plotted as an isobologram ([23]).

[17] = mouse liver microsomes, 0.5 μM compound
[18] = mouse PPB, equilibrium dialysis
[19] = tested on: T. brucei bloodstream forms (S427 Single Marker); conditions: previously determined value; cited from earlier work
[20] = tested on: L. donovani intracellular amastigotes in mouse peritoneal macrophages; conditions: comparator value, earlier work of the authors; cited from earlier work
[21] = tested on: lab-generated strains of nifurtimox-resistant T. brucei; conditions: cited from earlier work
[22] = Leishmania donovani, Peritoneal macrophage
[23] = Leishmania donovani, Peritoneal macrophage, L. donovani in macrophages, from EC50 and Hill slope, read-out: EC90
[24] = BALB/c, mouse, whole blood, 50 mg kg^−1 oral
[25] = L. donovani promastigote, read-out: EC50
[26] = 100 mg kg^−1 orally twice daily for 5 days
[27] = fixed-ratio isobologram, promastigotes
[28] = WT LdBOB promastigotes, nitroreductase experiment (Fig. 2), read-out: EC50 against wild-type (WT) promastigotes

O=[N+]([O-])c1cn2c(n1)OC[C@H](OCc1ccc(OC(F)(F)F)cc1)C2 [(R)-PA-824]
MIC [1]: > 100 µM
EC50 [2]: 0.93 ± 0.06 µM
EC50 [2, 22]: 0.9 ± 0.1 µM
EC90 [2, 23]: 3.4 µM
EC90 ([2]; Leishmania donovani, Peritoneal macrophage, not adjusted for plasma protein binding, read-out: EC90 (equivalent mass concentration)): 1.2 µg/mL
oral bioavailability [3]: orally bioavailable
maximum concentration in blood ([3]; 50 mg kg^−1 oral): 10,500 ng ml^−1
half-life [3, 24]: ~2 h
Tmax [3, 24]: 4 h
EC50 [4, 25]: 0.16 ± 0.03 µM
solubility [5]: > 250 µM
suppression of infection (liver parasite burden) compared to untreated controls [6]: approximately 35%
suppression of infection (liver parasite burden) [6, 26]: > 99% and 99.9%
fraction unbound [7]: 0.22
EC50 [8]: 14.9 ± 0.7 µM
cytocidal or cytostatic [9]: leishmanicidal rather than cytostatic; also recorded: cytocidal rather than cytostatic
time after which cell numbers begin to decline [9]: 12 h
time at which no intact/live parasites remain [9]: 24 h
EC50 [10]: 0.7 ± 0.08 µM
EC50 [11]: 4.4 ± 0.5 µM
tolerability in mice [12]: extremely well tolerated
EC50 [13]: 25 ± 0.2 µM
EC50 [14]: 0.11 ± 0.005 µM
EC50 [15]: > 50 µM
EC50 ([16]; Fig. 3A experiment): 0.18 µM
EC50 ([16]; Fig. 3B experiment): 0.1 µM
interaction in combination with (S)-PA-824 [16, 27]: mild antagonistic behavior; also recorded: progressively more antagonistic; also recorded: mildly antagonistic
interaction in combination with fexinidazole sulfone [16, 27]: act additively; also recorded: additive effect
CLint [17]: 0.65 mL/min/g

FC(F)(F)Oc1ccc(CO[C@H]2COc3nccn3C2)cc1 [(R)-des-nitro-PA-824]
activity against L. donovani intracellular amastigotes [2]: inactive
activity against L. donovani promastigotes [4]: inactive
fraction unbound (plasma protein binding) [18]: 0.45

O=[N+]([O-])c1cn2c(n1)OC[C@@H](OCc1ccc(OC(F)(F)F)cc1)C2 [(S)-PA-824, reference compound]
EC50 [2]: 4.92 ± 0.3 µM
EC50 [2, 22]: 4.9 ± 0.3 µM
EC90 [2, 23]: 22 µM
oral bioavailability [3]: orally bioavailable
maximum concentration in blood ([3]; 50 mg kg^−1 oral): 11,600 ng ml^−1
concentration at 24 h ([3]; BALB/c, mouse, whole blood, 50 mg kg^−1 oral, 24 h): 900 ng/mL
half-life [3, 24]: ~5 h
Tmax [3, 24]: 4 h
EC50 [4, 25]: 0.9 ± 0.1 µM
EC50 [4, 28]: 0.96 ± 0.02 µM
solubility [5]: > 250 µM
suppression of infection (liver parasite burden) compared to untreated controls [6]: approximately 35%
suppression of infection (liver parasite burden) [6, 26]: comparable to those seen in drug-free animals; also recorded: less efficacious
dose dependence of leishmanicidal effect ([6]; earlier in vivo study, range of doses down to 0.4 mg kg^−1, twice daily orally (Fig. S1)): apparent absence of a dose-dependent leishmanicidal effect
fraction unbound [7]: 0.21
cytocidal or cytostatic [9]: leishmanicidal rather than cytostatic
time after which cell numbers begin to decline [9]: 12 h
time at which no intact/live parasites remain [9]: 36 h
EC50 [10]: 3.4 ± 0.03 µM
EC50 [11]: > 30 µM
tolerability in mice [12]: extremely well tolerated
EC50 [13]: 36.5 ± 2.5 µM
EC50 [14]: 0.8 ± 0.04 µM
EC50 [15]: > 50 µM
EC50 ([16]; Fig. 3B experiment): 0.74 µM
CLint [17]: 1.6 mL/min/g
EC50 [19]: 37.8 ± 3.2 µM

FC(F)(F)Oc1ccc(CO[C@@H]2COc3nccn3C2)cc1 [(S)-des-nitro-PA-824]
activity against L. donovani intracellular amastigotes [2]: inactive
activity against L. donovani promastigotes [4]: inactive

Cn1c([N+](=O)[O-])cnc1COc1ccc(S(C)(=O)=O)cc1 [fexinidazole sulfone, reference compound]
EC50 [20]: 5.3 µM
EC50 ([16]; Fig. 3A experiment): 8.8 µM

CSc1ccc(OCc2ncc([N+](=O)[O-])n2C)cc1 [fexinidazole]
sensitivity of nifurtimox-resistant T. brucei [21]: cross resistant

CCCCCCCCCCCCCCCCOP(=O)([O-])OCC[N+](C)(C)C [miltefosine]
suppression of infection (liver parasite burden) ([6]; 12 mg kg^−1 orally once daily for 5 days): 68.7%

CC1CS(=O)(=O)CCN1/N=C/c1ccc([N+](=O)[O-])o1 (stereo not drawn) [nifurtimox]
EC50 [4, 28]: 5.6 ± 0.16 µM
EC50 [14]: 0.2 ± 0.09 µM
increase in sensitivity of nitroreductase-overexpressing parasites ([14]; transgenic versus wild-type): 26 fold

O.O.O.O.O.O.O.O.O.O=C([O-])[C@@H]1[O][Sb](=[O])([O][Sb]2(=[O])[O][C@H]([C@H](O)CO)[C@H](O)[C@H](C(=O)[O-])[O]2)[O][C@H]([C@H](O)CO)[C@@H]1O.[Na+].[Na+].[Na+] (stereo partly drawn) [sodium stibogluconate]
suppression of infection (liver parasite burden) ([6]; 15 mg kg^−1 subcutaneously once daily for 5 days): 41.9%
